This note sets out measurements from PMC9124651, “High-performance thin-layer chromatography in combination with an acetylcholinesterase-inhibition bioassay with pre-oxidation of organothiophosphates to determine neurotoxic effects in storm, waste, and surface water” (Analytical and Bioanalytical Chemistry, 2022).

In this test the target is T1, AChE from electric eel (Electrophorus electricus) (Electrophorus electricus, UniProt O42275).
T1 construct: purchased Sigma-Aldrich GmbH (Steinheim, Germany)
T1 sequence (O42275 24-633): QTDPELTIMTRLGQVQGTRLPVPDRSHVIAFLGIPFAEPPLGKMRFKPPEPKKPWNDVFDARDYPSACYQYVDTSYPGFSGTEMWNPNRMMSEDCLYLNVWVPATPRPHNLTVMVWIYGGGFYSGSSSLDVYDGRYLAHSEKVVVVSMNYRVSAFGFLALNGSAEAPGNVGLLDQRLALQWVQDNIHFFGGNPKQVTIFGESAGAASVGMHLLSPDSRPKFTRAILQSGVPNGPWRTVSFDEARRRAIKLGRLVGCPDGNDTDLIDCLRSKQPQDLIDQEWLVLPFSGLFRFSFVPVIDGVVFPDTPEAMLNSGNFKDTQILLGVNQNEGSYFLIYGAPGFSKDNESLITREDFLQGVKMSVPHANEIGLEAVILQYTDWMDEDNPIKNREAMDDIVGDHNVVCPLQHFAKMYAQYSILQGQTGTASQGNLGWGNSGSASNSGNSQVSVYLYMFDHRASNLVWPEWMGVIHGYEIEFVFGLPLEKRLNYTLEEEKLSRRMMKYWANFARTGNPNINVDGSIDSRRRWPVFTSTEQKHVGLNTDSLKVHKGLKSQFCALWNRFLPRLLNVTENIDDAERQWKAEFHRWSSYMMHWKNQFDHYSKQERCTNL
Put plainly: HPTLC-(Ox)-AChE-I assay, spray method (AChE sprayed onto plates). It is filed as biochemical. To be noted: spray method, without oxidation; for IC10 (10% AChE inhibition), best fit / IC20 (20% AChE inhibition), best fit / IC50 (50% AChE inhibition), best fit / IC80 (80% AChE inhibition), best fit: OTPs 100 µL, oxons 10 µL applied, peak heights, n = 3. How it is done: LiChrospher 10 × 20 cm HPTLC Silica gel 60 F254s plates (Merck, Darmstadt, Germany) with a layer thickness of 170–190 µm and spherical silica particles with a size of 7 µm were used. The HPTLC plates were immersed twice in 2-propanol for 20 min, each time followed by a drying step at room temperature for 20 min. The plates then were pre-developed with methanol, dried for 20 min at room temperature, heated at 105 °C for 20 min, and stored in a desiccator for further use. The automatic TLC Sampler 4 (ATS 4, CAMAG AG, Muttenz, Switzerland) was used for sample application. The desired sample volumes were sprayed as 6-mm-wide bands onto the HPTLC plates with an application speed of 300 nL/s. The distances of the exterior bands from the edges of the plates were 15 mm. The distance from the bottom edge was 8 mm for all bands. Methanol was used as rinsing solvent. The following further application parameters were used: filling speed 15 µL/s, pre-dosage volume 200 nL, retraction volume 200 nL, rinsing vacuum time 4 s, filling vacuum time 0 s, rinsing cycles 2, and filling cycles 1. The development of the HPTLC plates was realized by the Automated Multiple Development 2 (AMD 2, CAMAG, Muttenz, Switzerland). The OTPs, their oxons, and environmental samples were separated with an eluent mixture of cyclohexane, dichloromethane, and acetone in different proportions and with increasing migration distances (Fig. S2). After each development step, a drying step of 3 min under vacuum followed. The final migration distance was 80 mm and the whole procedure took approximately 45 min. In addition, a simpler development process was used containing only the last step of the previous described method.
The following AChE-I assay was performed in parts according to Mendoza et al., Stütz et al., and Weins and Jork. AChE was buffered in TRIS/HCl at a pH of 7.8 (2.5 U/mL). The AChE solution was either sprayed onto the HPTLC plates with a glass reagent sprayer until the plates were evenly moist (approx. 10 mL) or the plates were immersed in the AChE solution using the Chromatogram Immersion Device 3 (CID 3, CAMAG, Muttenz, Switzerland). The immersion volume, speed, time, and depth were approx. 200 mL, 2.5 cm/s, 2 s, and approx. 85 mm, respectively. Afterward, the plates were placed separately in closed plastic boxes, which contained paper towels moistened with water to gain a saturated atmosphere. An incubation at 37 °C for 5 min followed. The substrate indoxyl acetate was freshly prepared in methanol at a concentration of 20 mg/mL and 5 mL was sprayed onto the HPTLC plates with a glass reagent sprayer. During 45-min incubation time at room temperature, AChE cleaves the substrate into indoxyl and acetate. The indoxyl reacts with oxygen to the blue indigo dye. When AChE was inhibited, no indigo was produced and the spot stayed white. The TLC Scanner 3 (CAMAG, Muttenz, Switzerland) was used to scan each track on the plates at 670 nm using the fluorescence mode without optical filter. The CAMAG-embedded software Wincats (Vers. 1.4.9) was used to provide chromatograms of each track and to evaluate inhibition zones.
Several amounts of an OTP mix and an oxon mix were applied on HPTLC plates (Tab. S2) and tested as described in the “Combination of HPTLC and AChE-inhibition assay” section. Three plates were used for each dilution series. The application volume was 10 µL for investigating OTPs with following oxidation and 100 µL for testing OTPs without following oxidation. The application volume for the oxons was 10 µL. They were tested without oxidation step also in triplicates. The peak heights were used for evaluation. Only peaks that have a signal-to-noise ratio ≥ 3 were considered in the evaluation. The height next to the respective peak defines the noise.

For `CCOP(=O)(OCC)Oc1nc(Cl)c(Cl)cc1Cl` [Chlorpyrifos-oxon], the “LOD spray method (first detected AChE-I peak with signal-to-noise ratio ≥ 3)” value is reported as 0.25 ng/spot; the “IC10 (10% AChE inhibition), best fit” value is listed as 0.72 ng/spot; the “IC20 (20% AChE inhibition), best fit” value is on record as 1.1 ng/spot; the “IC50 (50% AChE inhibition), best fit” value came to 2.5 ng/spot. Moreover, the “IC80 (80% AChE inhibition), best fit” value turned out to be 5.4 ng/spot.

With `CCOC(=O)CC(SP(=O)(OC)OC)C(=O)OCC` (stereo not shown) [Malaoxon, malaoxon], the “LOD spray method (first detected AChE-I peak with signal-to-noise ratio ≥ 3)” value stood at 0.1 ng/spot; the “IC10 (10% AChE inhibition), best fit” value came to 0.16 ng/spot; the “IC20 (20% AChE inhibition), best fit” value is on record as 0.28 ng/spot; the “IC50 (50% AChE inhibition), best fit” value was 0.75 ng/spot. Moreover, the “IC80 (80% AChE inhibition), best fit” value came to 2.0 ng/spot.
